In patent publication USRE46698E1, “Use of cyclohexanol derivatives as antimicrobial active compounds” (MERCK PATENT GMBH, priority 2011, dated 2018):

Tests used:
[1] = Rancimate assay, antioxidative capacity (Example 1); conditions: 0.1% w/w in soya oil; 120° C.; input of air 201/h
Protocol: The antioxidative capacity of substances I-9, I-10 and I-2 is determined in the so-called Rancimate assay. The comparative substances used are 4-t-butyl-1-cyclohexanol and tocopherol. The positive standard employed is BHT. The measurement parameter is the time duration (induction time) of the increase in the conductivity of unstabilised soya oil on exposure to air at elevated temperature. The longer the induction time, the greater the stabilising or antioxidant action. The following boundary conditions were maintained: input of air 201/h; temperature 120° C. and sample concentrations of 0.1% w/w each in soya oil. For each test substance, a relative antioxidation-protection factor is determined, which corresponds to the ratio of the induction times with and without test substance: […]

[2] = Densities and viscosities, Ubbelohde viscometer, to estimate spreadability (Example 10); assay type: physicochemical; conditions: 25° C.
Protocol: Measurement of the Dynamic Viscosities in Order to Estimate the Spreadability at 25° C. After measurement of the densities and kinematic viscosities using an Ubbelohde viscometer, the following dynamic viscosities arise: Since spreadabilities and viscosities of cosmetic emollients correlate well, good spreadabilities can be concluded from the viscosities determined.

[3] = system: P. acnes (ATCC 6919); test: Growth inhibition by optical density, Bioscreen C (Example 4); assay type: cell-based, Propionibacterium acnes; conditions: 1.0% sample in water/ethanol (12% of ethanol) diluted 1 to 2 with bacteria suspension; 37° C.; negative control 1.0
Protocol: (§1) For sample preparation, the substances being investigated are each dissolved or homogeneously dispersed in an amount of 1.0% in a water/ethanol mixture (12% of ethanol) and subsequently diluted with bacteria suspension in the ratio 1 to 2. P. acnes (ATCC 6919) is pre-incubated under anaerobic conditions for 48 h at 35° C. on RMC agar (Merck 1.05410). A bacteria suspension having an optical density (OD) of about 1.5 is subsequently prepared in RMC broth (Merck 1.05411, double-concentrated). 150 μl of freshly prepared sample and 100 μl of paraffin are added to 150 μl of bacteria suspension per well. The optical density is determined over the course of time at 37° C. using a Bioscreen C™ analyser compared with the negative control (=vehicle without test substance). Compared with the negative control, reduced optical densities confirm growth-inhibiting substance actions.
(§2) Result as optical density of the bacteria suspension after an exposure time of 20 hours: […]

[4] = system: Candida albicans; test: Antimicrobial action, microbe count (Example 6); assay type: cell-based; conditions: conc. 0.5%; for Δlog: t24 h
Protocol: (§3) For sample preparation, the substances being investigated are each dissolved or homogeneously dispersed in an amount of 1.0% in a water/ethanol mixture (12% of ethanol) (=sample). A bacteria suspension of S. epidermidis (ATCC 12228) having an optical density of 1.0 in CASO broth (Merck 1.05459) is diluted 1:10000 with CASO broth. 500 μl of sample are added to 500 μl of bacteria suspension, and the mixture is incubated at 35° C. for 24 h. After the incubation, the test batches are diluted to −6 in 10 unit steps, and 0.1 ml of each is plated-out on CASO agar (Merck 1.05458) and incubated at 35° C. for 24 h.
(§4) In order to determine the initial microbe count, 0.1 ml of the bacteria suspension used are plated-out on CASO agar (Merck 1.05458) and incubated at 35° C. for 24 h.
(§5) The colonies are subsequently counted, and the microbe count per ml is determined compared with the negative control (12% of ethanol in water).
(§6) The procedure corresponds to that described in Examples 4 and 5 using the microorganisms shown below. The concentrations indicated are the final use concentrations. In order to prepare the stock solution, double the final concentration were prepared in the solvent indicated. This was subsequently diluted 1:2 with the corresponding microbe suspension. In the case of Aspergillus brasiliensis, the microbe count determination was exceptionally carried out after 48 h.

[5] = system: S. epidermidis (ATCC 12228); test: Microbe count determination, bacteriostatic or bactericidal action (Example 5); assay type: cell-based, Staphylococcus epidermidis; conditions: 24 h at 35° C.
Protocol: as §3, §4, §5

[6] = system: Salmonella enterica; test: Antimicrobial action, microbe count (Example 6); assay type: cell-based; conditions: conc. 0.5%; for Δlog: t24 h
Protocol: as §1, §3, §4, §5, §6

[7] = system: Echerichia coli; test: Antimicrobial action, microbe count (Example 6); assay type: cell-based; conditions: conc. 0.5%, H2O (12% of ethanol), count t0 4.6 × 10^4
Protocol: as §1, §3, §4, §5, §6

[8] = system: Serratia marcescens; test: Antimicrobial action, microbe count (Example 6); assay type: cell-based; conditions: conc. 0.5%; for Δlog: t24 h
Protocol: as §1, §3, §4, §5, §6

[9] = system: Malassezia furfur; test: Antimicrobial action, microbe count (Example 6); assay type: cell-based; conditions: conc. 1.0%, H2O, count t0 4.0 × 10^2
Protocol: as §1, §3, §4, §5, §6

[10] = system: Corynebacterium xerosis; test: Antimicrobial action, microbe count (Example 6); assay type: cell-based; conditions: conc. 0.5%, H2O (12% of ethanol), count t0 3.5 × 10^4
Protocol: as §1, §3, §4, §5, §6

[11] = system: Pseudomonas aeruginosa; test: Antimicrobial action, microbe count (Example 6); assay type: cell-based; conditions: conc. 0.5%, H2O (12% of ethanol), count t0 6.8 × 10^4
Protocol: as §1, §3, §4, §5, §6

[12] = system: S. epidermidis (ATCC 12228); test: Growth inhibition by optical density, Bioscreen C (Example 3); assay type: cell-based, Staphylococcus epidermidis; conditions: 1st experiment; 1.0% sample in water/ethanol (12% of ethanol) diluted 1 to 2 with bacteria suspension; 37° C.; negative control 0.80
Protocol: For sample preparation, the substances being investigated are each dissolved or homogeneously dispersed in an amount of 1.0% in a water/ethanol mixture (12% of ethanol) and subsequently diluted with bacteria suspension in the ratio 1 to 2. S. epidermidis (ATCC 12228) is pre-incubated under aerobic conditions for 24 h at 35° C. on CASO agar (Merck 1.05458). A bacteria suspension having an optical density (OD) of about 1.0 is subsequently prepared in CASO broth (Merck 1.05459, double-concentrated) and diluted again 1:10 in CASO broth. 150 μl of freshly prepared sample are added to 150 μl of bacteria suspension per well. The optical density is determined over the course of time at 37° C. using a Bioscreen C™ analyser compared with the negative control (=vehicle without test substance). Compared with the negative control, reduced optical densities confirm growth-inhibiting substance actions
as §2

[13] = H2O (12% of ethanol), count t0 3.4 × 10^4
[14] = H2O (12% of ethanol), count t0 6.0 × 10^4
[15] = H2O (12% of ethanol), count t0 6.8 × 10^4

CCOC(=O)C1CCCCC1O (stereo not shown) [Substance I-2]
Antioxidation-protection factor (ratio of the induction times with and without test substance) [1]: 1.15 | Density [2]: 1.0564 g/mL | Dynamic viscosity (kinematic viscosity × density) [2]: 16.4 mPas | Kinematic viscosity ([2]; Ubbelohde viscometer): 15.5 mm^2/s | OD20h, optical density of the bacteria suspension after 20 hours [3]: 0.45 | Microbe count t24 h [4, 13]: 3.0 × 10^2 | Δlog [4, 13]: −2.05 | Microbe count t24 h ([4]; H2O, count t0 3.8 × 10^5): 2.5 × 10^5 | Δlog ([4]; H2O, count t0 3.8 × 10^5): −0.18 | Final microbe count ([5]; 1.0% sample in 12% ethanol, 500 μl + 500 μl bacteria suspension, initial count 3.8 × 10^4, negative control 5.0 × 10^7): 2.9 × 10^4 CFU/ml | Note: bacteriostatic or bactericidal action ([5]; S. epidermidis): bacteriostatic | Microbe count t24 h [6, 14]: 0 | Δlog [6, 14]: −4.78 | Microbe count t24 h ([6]; H2O, count t0 1.0 × 10^6): 5.0 × 10^4 | Δlog ([6]; H2O, count t0 1.0 × 10^6): −1.30 | Microbe count t24 h [7]: 1.8 × 10^3 | Δlog ([7]; t24 h): −1.41 | Microbe count t24 h [8, 15]: 0 | Δlog [8, 15]: −3.83 | Microbe count t24 h ([8]; H2O, count t0 2.9 × 10^5): 9.0 × 10^5 | Δlog ([8]; H2O, count t0 2.9 × 10^5): +0.49 | Microbe count t24 h [9]: 0 | Δlog ([9]; t24 h): −2.60 | Microbe count t24 h [10]: 0 | Δlog ([10]; t24 h): −4.54 | Microbe count t24 h [11]: 0 | Δlog ([11]; t24 h): −4.83 | OD20h, optical density of the bacteria suspension after 20 hours [12]: 0.30
